Experimental data: US20180362993A1, “ELICITOR-DERIVED PEPTIDES AND USE THEREOF” (Plant Health Care, Inc., priority 2017, published 2018)
Values joined by “and” are separate entries in the source; they are usually repeats but may differ in a detail not shown here. Equal entries are not always repeated. Marks after values point to notes of the source that are not given here.

Assays:
Assay type in all cases: in vivo
[1] = tested on: soy; assay: Drought resistance in soy (foliar spray); conditions: vs untreated control
Description: (§1) The effectiveness of peptide treatment in reducing drought stress was assessed in […]. 3.5 inch pots were filled with Sunshine #1 soil (SunGro Horticulture), fertilized with a 20-10-20 mixture. The soil was soaked and drained overnight. Seeds (soy, manually inspected to ensure uniform seed size) were planted at a depth of half inch for germination. Plants were grown in a greenhouse under 16 hour light days at >70° F. and 8 hour dark nights at >65° F. Prior to drought conditions, the plants were well-watered.
When the plants reached the growth stage when first trifoliate expanded, plants were culled to achieve a uniform height (abnormally large and small plants were removed). Plants were then randomly assigned to control (spray without peptide) or treatment (spray with peptide) groups and heights were measured. Peptide was made up in a solution of 0.2 μg/ml or 2μg/ml in distilled water+0.04% Tween-20, and applied as a fine mist from a spray bottle until the solution drips from the leaves. After the peptide solutions were dried, the plants were again randomized in a randomized complete block design. Cyclic drought stress was initiated after the peptide treatment. Plants were subjected to at least three drought cycles of drought stress (3-5 days of withholding water and 1 day irrigated with saturating amount of water) before harvesting.
(§2) The drought test phase ended after 2-3 weeks. At that time, the plant height was again measured and the growth rate was calculated as the difference between this and the previously-recorded height. The above-ground part portions of the plants were harvested and weighed to obtain fresh weight. The above-ground portion was also dried in an oven at 70° C. for 72 hours to obtain dry weight. All calculations were compared with matched untreated control plants.
The drought testing procedure was carried out in soy using a treatment of P12-2, P13-4, P13-5, P13-7, P13-3, P13-14, P13-2, and P13-15 (SEQ ID NOs: 6, 10, 11, 13, 9, 20, 8, and 21). Asterisks indicate statistical significance by P-value (*: P<0.1 and **: P<0.05)

[2] = tested on: corn; assay: Drought resistance in corn (foliar spray); conditions: corn, vs untreated control
Description: as §1, with “(either corn or soy,” for “(soy,”, “1” for “half”
When the plants reached the V1 stage, plants were culled to achieve a uniform height (abnormally large and small plants were removed). Plants were then randomly assigned to control (spray without peptide) or treatment (spray with peptide) groups and heights were measured. Peptide was made up in a solution of 0.2 μg/ml or 2μg/ml in distilled water+0.01% Tween-20, and applied as a fine mist from a spray bottle until the solution drips from the leaves. After the peptide solutions were dried, the plants were again randomized in a randomized complete block design. Drought stress was initiated after the peptide treatment. This was caused by maintaining the water level at 25-50% of the maximum capacity for water (capacity was decided as the weight of the pot filled with saturated soil minus the weight of the filled pot prior to adding water).
as §2
The drought testing procedure was carried out in corn using a treatment of P12, P13-10, P13-11, P13-12, P13-14, P13-4, and P13-15 (SEQ ID NOs: 5, 16, 17, 18, 20, 10, and 21). Asterisks indicate statistical significance by P-value (*: P<0.1 and **: P<0.05)

[3] = tested on: corn; assay: Drought resistance in seed-coated corn; conditions: for Drought tolerance activity in corn, result in words: corn seed treatment; for % Change Dry Weight / % Change Fresh Weight: vs mock
Description: The effectiveness of peptide treatment in reducing the effects of drought stress was assessed in corn using a seed treatment strategy. This strategy largely mirrors example 2, except that the seeds were coated with a peptide formulation rather than a foliar spray application.
Seeds were first sieved using mesh screens to a uniform size (21-23/64 inches). The seeds were then coated with a mixture of peptide, Unicoat™ seed coat polymer, and a minimal volume of water in a Hege 11 Liquid Seed Treater (Wintersteiger) according to manufacturer recommendations. Seeds were coated with one of the following: (i) 0.12 μg peptide/seed, (ii) […], or (iii) a ‘mock’ treatment that included no peptide. The amount of peptide per seed assumes complete transfer of the peptide to seed surfaces in the seed coating chamber. Losses during coating were not considered.
(§3) 3.5 inch pots were filled (approximately 0.2 L per pot) with Sunshine #1 mix (SunGro Horticulture), fertilized with 14-14-14 N,P,K Osmocote (Everris), and mixed for 20 minutes using a soil mixer M-5. Seeds were planted at a depth of 0.5 inch for germination. The pots were immediately irrigated by submergence then drained after about an hour. For each treatment group, 24 replicate seeds were planted. Plants were grown in a greenhouse under 16 hour light days at ˜75° F. and 8 hour dark nights at ˜65° F. Prior to drought conditions, the plants were well-watered.
Three days after planting, the plants were randomized using a complete block design and subjected to a cyclic drought stress. Drought stress was imposed by withholding water for 2-3 days until the majority of plants were under medium to severe water stress. The severity of the stress was determined by the weight of the pot and visual determination of leaf curling. Once drought stress was attained, the pots were watered to full saturation. Full Saturation (100% pot capacity) is defined as the weight of the pot filled with water-saturated soil minus the weight of the filled pot prior to adding water. Drought stress was imposed for a total of 18 days.
(§4) At the end of the experiment (18 days after initiation of drought stress), the plant was then harvested for fresh and dry weights. Individual plants were cut near the soil surface and weighed immediately (fresh weight). The plants were then placed into labeled brown paper bags and dried in a 70° C. oven for 72 hours. A dry weight was then obtained.
The following calculation was performed on the collected data: Fresh weight at harvest and dry weight at harvest for the plants grown from peptide-treated seeds were expressed as a % change relative to the ‘mock’ treated plants.

[4] = tested on: tobacco mosaic virus (TMV); assay: Induction of resistance to tobacco mosaic virus in tobacco (foliar spray); conditions: for Effectiveness Covered (% decline in TMV lesions vs UTC): covered leaf (systemic response); for Effectiveness Uncovered (% decline in TMV lesions vs UTC): uncovered leaf (local response)
Description: Peptides were tested for the induction of resistance to tobacco mosaic virus (TMV) in tobacco. Briefly, three tobacco plants at 6-8 weeks old were selected per group (samples and controls). The bottom-most leaf of the plant was covered and the plant was sprayed with a solution of water (untreated control—UTC), peptide, or Proact (positive control). The spray was applied until the leaves were fully wetted, indicated by liquid dripping from the leaves. The plants were then allowed to dry and the leaf covering was removed.
Three days post-treatment, the previously-covered leaf and a leaf on the opposite side of the plant were then lightly dusted with diatomaceous earth and 20 ul of a 1.7 μg/ml solution of purified tobacco mosaic virus was applied. The TMV solution was then spread across the leaf surface by lightly rubbing solution and the diatomaceous earth across the surface of the leaves. Two minutes after inoculation, the diatomaceous earth was rinsed off the leaves with water. 3 days after TMV inoculation, the leaves were scored based on the number of TMV lesions observed. The leaf was also scored for signs of the hypersensitive response, including yellowing and wilting of the affected leaves.
Effectiveness described in Table 5 refers to the % decline in TMV lesions on treated vs UTC plants. A reduction of TMV on covered leaves indicates a systemic immune response in the plant while reduction on uncovered leaves indicates a local response. Asterisks indicate that the P-value derived from a T-test was <0.05.

[5] = tested on: soy; assay: Drought resistance in seed-treated soy; conditions: for % Change Dry Weight / % Change Fresh Weight: vs mock
Description: The effectiveness of peptide treatment in reducing drought stress was assessed in soy using a seed treatment strategy. This strategy largely mirrors examples 3 and 4.
Seeds were first sieved using mesh screens to a uniform size (14-17 mesh). The seeds were then coated with a mixture of peptide and Unicoat™ seed coat polymer in a Hege 11 Liquid Seed Treater (Wintersteiger) according to manufacturer recommendations. […]
as §3
Seven days after germination the heights of the plants were measured. This was determined as the distance between the soil surface and the shoot apical meristems (buds). The plants were randomized using a complete block design and subjected to a cyclic drought stress. Drought stress was imposed by withholding water for 3-4 days until the majority of plants were under medium to severe water stress. The severity of the stress was determined by the weight of the pot and visual determination of loss of turgor in the leaves (drooping). Once drought stress was attained, the pots were watered to full saturation. Full Saturation (100% pot capacity) is defined as the weight of the pot filled with water-saturated soil minus the weight of the filled pot prior to adding water. Drought stress was imposed for a total of 18 days.
as §4, with “the plant above the soil surface was then” for “the plant was then”, “then obtained. The following calculation was performed on the collected data: Fresh weight at harvest, and dry weight at harvest for the peptide-treated plants were expressed as a % change relative to the ‘mock’ treated plants.” for “then obtained.”

[6] = corn seed treatment 0.12 μg/seed
[7] = corn seed treatment 1.05 μg/seed

Row | Sequence | Dry Weight Increase ([1]; foliar spray 2 μg/ml) | Fresh Weight Increase ([1]; foliar spray 2 μg/ml) | Drought tolerance activity in corn, result in words [3] | % Change Dry Weight [3, 6] | % Change Fresh Weight [3, 6] | Dry Weight Increase ([1]; foliar spray 0.2 μg/ml) | Fresh Weight Increase ([1]; foliar spray 0.2 μg/ml) | % Change Dry Weight [3, 7] | % Change Fresh Weight [3, 7] | other results
1 | GDLQGSGASTQDTSGMSPMEQLMKIFADITQSLFGDQDG (P12-2 peptide) [Peptide P12-2] | 3.55% | 7.83** % | – | – | – | – | – | – | – | –
2 | GQTSGMSPMEQLMKIFADITQSLFG (P13-15 peptide) [Peptide P13-15] | 2.07% | 5.38* % | – | – | – | – | – | – | – | Dry Weight Increase ([2]; foliar spray 0.2 μg/ml): 6.21%; Fresh Weight Increase ([2]; foliar spray 0.2 μg/ml): 2.92%
3 | LEELEELLEIFEEIEEELFEE (P13-7 peptide) [Peptide P13-7] | 4.50* % | 5.80* % | preservation of activity | 4.77** % | 5.6* % | – | – | – | – | –
4 | LSPLEQLMKIFADITQSLFEEEE (P13-5 peptide) [Peptide P13-5] | 4.36% | 9.73** % | supported corn drought tolerance | – | – | 6.93** % | 12.23** % | 5.07* % | 5.66** % | –
5 | MSPMEQLMKIFADITQSLFEEEE (P13-4 peptide) [Peptide P13-4] | – | – | – | – | – | 4.45* % | 7.75** % | – | – | Dry Weight Increase ([2]; foliar spray 2 μg/ml): 0.06%; Fresh Weight Increase ([2]; foliar spray 2 μg/ml): −2.77%
6 | QTGDDSLSGAGQTSGMSPMEQLMKIFADITQSLFG (P13-14 peptide) [Peptide P13-14] | – | – | – | 3.77% | 9.11** % | −3.68** % | −2.86% | 7.92** % | 11.83** % | Dry Weight Increase ([2]; foliar spray 2 μg/ml): 2.48%; Fresh Weight Increase ([2]; foliar spray 2 μg/ml): 4.36* %
7 | QTGDDSLSGAGQTSGMSPMEQLMKIFADITQSLFGDQ (P13-13 peptide) [Peptide P13-13] | – | – | – | – | – | – | – | – | – | Effectiveness Covered (% decline in TMV lesions vs UTC) ([4]; 20 μg/ml spray): 38.5%; Effectiveness Uncovered (% decline in TMV lesions vs UTC) ([4]; 20 μg/ml spray): 36.6%
8 | QTGDDSLSGAGQTSGMSPMEQLMKIFADITQSLFGDQDG (P12 peptide) [Peptide P12] | – | – | – | – | – | – | – | – | – | Effectiveness Covered (% decline in TMV lesions vs UTC) ([4]; 10 μg/ml spray): 66* %; Effectiveness Uncovered (% decline in TMV lesions vs UTC) ([4]; 10 μg/ml spray): 53* %; Dry Weight Increase ([2]; foliar spray 2 μg/ml): 6.28** %; Fresh Weight Increase ([2]; foliar spray 2 μg/ml): 4.87* %
9 | SEEMSPMEQLMKIFADITQSLFEE (P13-36 peptide) [Peptide P13-36] | – | – | supported corn drought tolerance | 5.93** % | 10.60** % | – | – | 7.95** % | 12.38** % | % Change Dry Weight ([5]; soy seed treatment 0.9 μg/seed): −4.78%; % Change Fresh Weight ([5]; soy seed treatment 0.9 μg/seed): 1.46%
10 | SEQEEEMEEMEQLMEIFEEIEQELFE (P13-28 peptide) [Peptide P13-28] | – | – | preservation of activity | 8.52** % | 9.99** % | – | – | 6.04** % | 8.18** % | Result in the seed treated drought study for soy, in words ([5]; soy seed treatment): significant results; % Change Dry Weight ([5]; soy seed treatment 0.9 μg/seed): 10.35** %; % Change Fresh Weight ([5]; soy seed treatment 0.9 μg/seed): 14.35** %
11 | SQEEEMEPMEQLMEIFEEIEQELFG (P13-26 peptide) [Peptide P13-26] | – | – | preservation of activity | 4.74** % | 3.77* % | – | – | 5.92** % | 4.23* % | % Change Dry Weight ([5]; soy seed treatment 0.1 μg/seed): 3.40%; % Change Fresh Weight ([5]; soy seed treatment 0.1 μg/seed): 2.04%
12 | TSGLSPLEQLLKIFADITQSLFG (P13-2 peptide) [Peptide P13-2] | 14.54** % | 15.56** % | – | – | – | 8.70** % | 7.84** % | 0.38% | 3.67% | –
13 | TSGLSPLEQLLKIFAEITQSLFG (P13-3 peptide) [Peptide P13-3] | 2.54% and 6.07** % | 5.90** % and 13.61** % | – | 2.81% | 1.49% | 8.47** % | 11.43** % | – | – | –
